This note sets out measurements from US9598362B2, “Benzidine derivative, method for preparing same, and pharmaceutical composition containing benzidine derivative for treating liver disease caused by hepatitis C virus” (priority 2013, dated 2017).

This assay relates to HCV (JFH-5aFlucm4). As to the kind of experiment: Evaluation of anti-HCV activity 1: huh7.5.1 cells inoculated with HCV carrying renilla luciferase reporter. It counts as cell-based. The conditions noted are these: Hepatitis C virus.

Like-named read-outs stand apart in the source and are kept apart here. Some results are limits rather than exact numbers.

As for `COC(=O)N[C@@H](C(=O)N1CCC[C@H]1C(=O)Nc1ccc(-c2ccc(NC(=O)[C@@H]3CCCN3C(=O)[C@H](NC(=O)OC)c3ccccc3)cc2)cc1)c1ccccc1` [Example 16, dimethyl(1S,1′S)-2,2′-((2S,2′S)-2,2′-(biphenyl-4,4′-diylbis(azandiyl))bis(oxomethylene)bis(pyrrolidine-2,1-diyl))bis(2-oxo-1-phenylethane-2,1-diyl)dicarbamate], the EC50 by setting is: (Huh-7.5.1) under 1 nM; (Huh-7.5.1, 72 h, read-out: EC50 grade) under 1 nM.
